In patent US20260217767A1, “NOVEL A4B7 THIOETHER PEPTIDE DIMER ANTAGONISTS” (Protagonist Therapeutics, Inc., priority 2014, published 2026):
Where a SMILES comes first, the peptide text is derived from it.

These compounds were tested against T1, rh integrin α4β7 (Homo sapiens, UniProt P13612+P26010) (assay: α4β7-MAdCAM Competition ELISA). Conditions: thioether monomer peptides, Table 6; read-out: ELISA A4B7.
T1 construct: purchased R&D Systems 5397-A30
T1 sequence (P13612 34-977 limits assumed): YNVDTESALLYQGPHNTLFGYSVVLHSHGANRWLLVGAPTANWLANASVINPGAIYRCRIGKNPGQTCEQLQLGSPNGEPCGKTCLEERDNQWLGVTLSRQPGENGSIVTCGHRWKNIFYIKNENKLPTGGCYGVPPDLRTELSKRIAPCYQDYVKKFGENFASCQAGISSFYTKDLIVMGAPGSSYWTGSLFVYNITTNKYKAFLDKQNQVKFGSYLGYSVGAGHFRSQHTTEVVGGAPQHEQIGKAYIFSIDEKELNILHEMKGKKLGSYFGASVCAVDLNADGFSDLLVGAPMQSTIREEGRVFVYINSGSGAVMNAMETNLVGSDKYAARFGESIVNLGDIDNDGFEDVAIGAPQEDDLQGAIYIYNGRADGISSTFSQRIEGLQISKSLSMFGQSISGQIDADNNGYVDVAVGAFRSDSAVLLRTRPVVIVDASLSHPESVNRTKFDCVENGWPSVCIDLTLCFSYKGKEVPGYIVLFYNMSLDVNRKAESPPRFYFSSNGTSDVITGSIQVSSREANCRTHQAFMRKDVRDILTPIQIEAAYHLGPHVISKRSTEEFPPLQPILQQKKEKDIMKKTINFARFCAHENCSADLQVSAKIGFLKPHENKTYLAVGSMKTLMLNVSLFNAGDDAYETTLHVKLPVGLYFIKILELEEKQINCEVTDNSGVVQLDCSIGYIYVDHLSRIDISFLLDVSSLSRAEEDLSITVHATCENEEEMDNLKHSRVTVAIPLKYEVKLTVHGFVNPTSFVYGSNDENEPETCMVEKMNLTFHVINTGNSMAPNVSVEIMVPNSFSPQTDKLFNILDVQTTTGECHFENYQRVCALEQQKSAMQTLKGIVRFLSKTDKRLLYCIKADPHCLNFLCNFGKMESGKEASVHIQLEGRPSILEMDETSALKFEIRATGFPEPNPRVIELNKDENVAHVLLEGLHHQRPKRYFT
T1 sequence (P26010 20-723 limits assumed): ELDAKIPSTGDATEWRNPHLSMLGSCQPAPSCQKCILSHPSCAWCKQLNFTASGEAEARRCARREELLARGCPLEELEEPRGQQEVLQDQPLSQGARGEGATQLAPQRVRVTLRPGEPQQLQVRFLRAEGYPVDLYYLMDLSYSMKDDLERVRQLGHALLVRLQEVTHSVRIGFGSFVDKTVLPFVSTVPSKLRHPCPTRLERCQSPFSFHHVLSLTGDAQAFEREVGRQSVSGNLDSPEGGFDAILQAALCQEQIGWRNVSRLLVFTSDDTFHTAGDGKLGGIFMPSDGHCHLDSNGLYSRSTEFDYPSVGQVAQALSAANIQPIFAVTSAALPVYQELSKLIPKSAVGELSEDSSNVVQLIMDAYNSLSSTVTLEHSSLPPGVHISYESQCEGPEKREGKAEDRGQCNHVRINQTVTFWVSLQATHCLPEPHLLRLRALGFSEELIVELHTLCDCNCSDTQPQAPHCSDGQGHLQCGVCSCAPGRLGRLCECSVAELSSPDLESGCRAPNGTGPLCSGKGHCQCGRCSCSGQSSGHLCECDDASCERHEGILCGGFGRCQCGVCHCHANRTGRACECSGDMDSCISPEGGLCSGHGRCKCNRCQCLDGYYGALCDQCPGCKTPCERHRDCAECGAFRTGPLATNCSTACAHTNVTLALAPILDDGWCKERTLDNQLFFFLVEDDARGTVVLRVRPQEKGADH
Assay type: binding
Summary of the method: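 Recombinant human α4β7 captured on nickel-coated plates, then incubated 1 h at room temperature with serially diluted peptides (final top 10 μM) and 10 nM final MAdCAM-1 in Tris pH 7.6 buffer with 1 mM MnCl2 or MgCl2. Bound MAdCAM-1 detected with anti-human IgG1-HRP and TMB, absorbance at 450 nm.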

Structure (SMILES)	IC50
CC(C)C[C@@H]1NC(=O)[C@H]([C@@H](C)O)NC(=O)[C@H](CC(=O)O)NC(=O)[C@H](CO)NC(=O)[C@H](CCCNC(=N)N)N(C)C(=O)c2ccccc2CSC(C)(C)[C@@H](C(=O)N[C@@H](Cc2c[nH]c3ccccc23)C(=O)N[C@H](CCC(=O)O)C(=O)N[C@@H](CO)C(N)=O)NC1=O [compound 100] (HELM PEPTIDE1{[meR].S.D.T.L.[Pen].W.[dE].S.[am]}|CHEM1{[O=C(c1ccccc1C[*:2])[*:1]]}$PEPTIDE1,CHEM1,1:R1-1:R1|PEPTIDE1,CHEM1,6:R3-1:R2$$$V2.0)	< 25 nM
CC(C)C[C@@H]1NC(=O)[C@H]([C@@H](C)O)NC(=O)[C@H](CC(=O)O)NC(=O)[C@H](CO)NC(=O)[C@H](CCCNC(=N)N)N(C)C(=O)c2ccccc2CSC(C)(C)[C@@H](C(=O)N[C@@H](Cc2c[nH]c3ccccc23)C(=O)N[C@H](CCC(=O)O)C(=O)N[C@@H](Cc2ccccc2)C(N)=O)NC1=O [compound 101] (HELM PEPTIDE1{[meR].S.D.T.L.[Pen].W.[dE].F.[am]}|CHEM1{[O=C(c1ccccc1C[*:2])[*:1]]}$PEPTIDE1,CHEM1,1:R1-1:R1|PEPTIDE1,CHEM1,6:R3-1:R2$$$V2.0)	< 25 nM
CC(C)C[C@@H]1NC(=O)[C@H]([C@@H](C)O)NC(=O)[C@H](CC(=O)O)NC(=O)[C@H](CO)NC(=O)[C@H](CCCNC(=N)N)N(C)C(=O)c2ccccc2CSC(C)(C)[C@@H](C(=O)N[C@@H](Cc2c[nH]c3ccccc23)C(=O)N[C@H](CCC(=O)O)C(=O)N[C@@H](Cc2c[nH]cn2)C(N)=O)NC1=O [compound 102] (HELM PEPTIDE1{[meR].S.D.T.L.[Pen].W.[dE].H.[am]}|CHEM1{[O=C(c1ccccc1C[*:2])[*:1]]}$PEPTIDE1,CHEM1,1:R1-1:R1|PEPTIDE1,CHEM1,6:R3-1:R2$$$V2.0)	< 25 nM
CC(C)C[C@@H]1NC(=O)[C@H]([C@@H](C)O)NC(=O)[C@H](CC(=O)O)NC(=O)[C@H](CO)NC(=O)[C@H](CCCNC(=N)N)N(C)C(=O)c2ccccc2CSC(C)(C)[C@@H](C(=O)N[C@@H](Cc2c[nH]c3ccccc23)C(=O)N[C@H](CCC(=O)O)C(=O)N[C@@H](Cc2ccc(O)cc2)C(N)=O)NC1=O [compound 104] (HELM PEPTIDE1{[meR].S.D.T.L.[Pen].W.[dE].Y.[am]}|CHEM1{[O=C(c1ccccc1C[*:2])[*:1]]}$PEPTIDE1,CHEM1,1:R1-1:R1|PEPTIDE1,CHEM1,6:R3-1:R2$$$V2.0)	< 25 nM
CC(C)C[C@@H]1NC(=O)[C@H]([C@@H](C)O)NC(=O)[C@H](CC(=O)O)NC(=O)[C@H](CO)NC(=O)[C@H](CCCNC(=N)N)N(C)C(=O)c2ccccc2CSC(C)(C)[C@@H](C(=O)N[C@@H](Cc2c[nH]c3ccccc23)C(=O)N[C@H](CCC(=O)O)C(=O)N[C@H](CO)C(N)=O)NC1=O [compound 106] (HELM PEPTIDE1{[meR].S.D.T.L.[Pen].W.[dE].[dS].[am]}|CHEM1{[O=C(c1ccccc1C[*:2])[*:1]]}$PEPTIDE1,CHEM1,1:R1-1:R1|PEPTIDE1,CHEM1,6:R3-1:R2$$$V2.0)	< 25 nM
CC(C)C[C@@H]1NC(=O)[C@H]([C@@H](C)O)NC(=O)[C@H](CC(=O)O)NC(=O)[C@H](CO)NC(=O)[C@H](CCCNC(=N)N)N(C)C(=O)c2ccccc2CSC(C)(C)[C@@H](C(=O)N[C@@H](Cc2c[nH]c3ccccc23)C(=O)N[C@H](CCC(=O)O)C(=O)N[C@H](Cc2ccccc2)C(N)=O)NC1=O [compound 107] (HELM PEPTIDE1{[meR].S.D.T.L.[Pen].W.[dE].[dF].[am]}|CHEM1{[O=C(c1ccccc1C[*:2])[*:1]]}$PEPTIDE1,CHEM1,1:R1-1:R1|PEPTIDE1,CHEM1,6:R3-1:R2$$$V2.0)	< 25 nM
CC(C)C[C@@H]1NC(=O)[C@H]([C@@H](C)O)NC(=O)[C@H](CC(=O)O)NC(=O)[C@H](CO)NC(=O)[C@H](CCCNC(=N)N)N(C)C(=O)c2ccccc2CSC(C)(C)[C@@H](C(=O)N[C@@H](Cc2c[nH]c3ccccc23)C(=O)N[C@H](CCC(=O)O)C(=O)N[C@H](CCC(=O)O)C(N)=O)NC1=O [compound 108] (HELM PEPTIDE1{[meR].S.D.T.L.[Pen].W.[dE].[dE].[am]}|CHEM1{[O=C(c1ccccc1C[*:2])[*:1]]}$PEPTIDE1,CHEM1,1:R1-1:R1|PEPTIDE1,CHEM1,6:R3-1:R2$$$V2.0)	< 25 nM
CC(C)C[C@@H]1NC(=O)[C@H]([C@@H](C)O)NC(=O)[C@H](CC(=O)O)NC(=O)[C@H](CO)NC(=O)[C@H](CCCNC(=N)N)N(C)C(=O)c2ccccc2CSC(C)(C)[C@@H](C(=O)N[C@@H](Cc2c[nH]c3ccccc23)C(=O)N[C@H](CCC(=O)O)C(=O)N[C@H](Cc2ccc(O)cc2)C(N)=O)NC1=O [compound 110] (HELM PEPTIDE1{[meR].S.D.T.L.[Pen].W.[dE].[dY].[am]}|CHEM1{[O=C(c1ccccc1C[*:2])[*:1]]}$PEPTIDE1,CHEM1,1:R1-1:R1|PEPTIDE1,CHEM1,6:R3-1:R2$$$V2.0)	< 25 nM
CC(C)C[C@@H]1NC(=O)[C@H]([C@@H](C)O)NC(=O)[C@H](CC(=O)O)NC(=O)[C@H](CO)NC(=O)[C@H](CCCNC(=N)N)N(C)C(=O)c2ccccc2CSC(C)(C)[C@@H](C(=O)N[C@@H](Cc2c[nH]c3ccccc23)C(=O)N[C@H](CCC(=O)O)C(=O)N[C@@H](CCC(=O)O)C(N)=O)NC1=O [compound 113] (HELM PEPTIDE1{[meR].S.D.T.L.[Pen].W.[dE].E.[am]}|CHEM1{[O=C(c1ccccc1C[*:2])[*:1]]}$PEPTIDE1,CHEM1,1:R1-1:R1|PEPTIDE1,CHEM1,6:R3-1:R2$$$V2.0)	< 25 nM
CC(C)C[C@@H]1NC(=O)[C@H]([C@@H](C)O)NC(=O)[C@H](CC(=O)O)NC(=O)[C@H](CO)NC(=O)[C@H](CCCNC(=N)N)N(C)C(=O)c2ccccc2CSC(C)(C)[C@@H](C(=O)N[C@@H](Cc2ccc3ccccc3c2)C(=O)N[C@H](CCC(=O)O)C(N)=O)NC1=O [compound 114] (HELM PEPTIDE1{[meR].S.D.T.L.[Pen].[O=C([C@H](Cc1ccc2ccccc2c1)N[*:1])[*:2]].[dE].[am]}|CHEM1{[O=C(c1ccccc1C[*:2])[*:1]]}$PEPTIDE1,CHEM1,1:R1-1:R1|PEPTIDE1,CHEM1,6:R3-1:R2$$$V2.0)	< 25 nM
CC(C)C[C@@H]1NC(=O)[C@H]([C@@H](C)O)NC(=O)[C@H](CC(=O)O)NC(=O)[C@H](CO)NC(=O)[C@H](CCCNC(=N)N)N(C)C(=O)c2ccccc2CSC(C)(C)[C@@H](C(=O)N[C@@H](Cc2ccc3ccccc3c2)C(N)=O)NC1=O [compound 116] (HELM PEPTIDE1{[meR].S.D.T.L.[Pen].[O=C([C@H](Cc1ccc2ccccc2c1)N[*:1])[*:2]].[am]}|CHEM1{[O=C(c1ccccc1C[*:2])[*:1]]}$PEPTIDE1,CHEM1,1:R1-1:R1|PEPTIDE1,CHEM1,6:R3-1:R2$$$V2.0)	< 25 nM

Same assay, conditions: thioether peptide dimers, Table 7; read-out: ELISA A4B7

Structure (SMILES)	IC50
CC(C)C[C@@H]1NC(=O)[C@H]([C@@H](C)O)NC(=O)[C@H](CC(=O)O)NC(=O)[C@H](CO)NC(=O)[C@H](CCCNC(=N)N)N(C)C(=O)CSC[C@@H](C(=O)N[C@@H](Cc2c[nH]c3ccccc23)C(=O)N[C@H](CCCCNC(=O)COCC(=O)NCCCC[C@@H](NC(=O)[C@H](Cc2c[nH]c3ccccc23)NC(=O)[C@@H]2CSCC(=O)N(C)[C@@H](CCCNC(=N)N)C(=O)N[C@@H](CO)C(=O)N[C@@H](CC(=O)O)C(=O)N[C@@H]([C@@H](C)O)C(=O)N[C@@H](CC(C)C)C(=O)N2)C(N)=O)C(N)=O)NC1=O [compound 143]	< 25 nM
